Assay results: US20110105422A1, “USE OF G-RICH OLIGONUCLEOTIDES FOR TREATING NEOPLASTIC DISEASES” (priority 2008, published 2011)
pIC50: −log10 of the molar value. Entries after “also recorded” stand apart in the source; their conditions may differ. Where two headings read alike, the source gives them in different places.

Assays:
[1] = system: KG-1 cells; experiment: Sulphorhodamine B (SRB) assay, KG-1; type: cell-based; conditions: KG-1, 6 days
Description: (§1) Cells of the types described above were seeded in wells of a 96-well plate at a number optimised for each cell line.
(§2) A fixed concentration of AS1411 (either 1 μM or 2.5 μM) was added with varying concentrations of doxorubicin (ranging between 0.12 nM and 30667.0 nM) and cells were incubated for 6 days. A control was run with varying amounts of AS1411 without Doxorubicin. A second control series was run with the varying amounts of Doxorubicin but with no AS1411 present.
(§3) Cells were then washed, fixed to the 96-well plate with 16% TCA and exposed to the dye Sulphorhodamine B (SRB; available from Sigma-Aldrich, Dorset, UK; catalogue number S-1402). The optical density of the remaining cell mass after exposure to AS1411 was measured in a microplate spectrophotometer and IC50 determined.
(§4) The experiments were run in duplicate and the mean optical density calculated.
(§5) Combination index (CI) is determined using Calcusyn software (Biosoft, Cambridge UK) which employs the method of Chou, T.-C. and Talalay, P (See, Chou et al, Adv. Enz. Regul. 22: 27-55, 1984; and Chou, T.-C., Pharmacological Reviews 58:621-681, 2006.).

[2] = system: K562 cells; experiment: Sulphorhodamine B (SRB) assay, K562; type: cell-based; conditions: K562, 6 days
Description: as §1, §2, §3, §4, §5

[3] = system: Jurkat cells; experiment: Sulphorhodamine B (SRB) assay, Jurkat; type: cell-based; conditions: 6 days
Description: as §1, §2, §3, §4, §5

[4] = system: Daudi cells; experiment: Sulphorhodamine B (SRB) assay, Daudi; type: cell-based, human
Description: as §1, §2, §3, §4, §5

[5] = system: MV411 cells; experiment: Sulphorhodamine B (SRB) assay, MV411; type: cell-based; conditions: MV411, 6 days
Description: as §1, §2, §3, §4, §5

[6] = system: Raji cells; experiment: Sulphorhodamine B (SRB) assay, Raji; type: cell-based, human
Description: as §1, §2, §3, §4, §5

[7] = system: Namalwa cells; experiment: Sulphorhodamine B (SRB) assay, Namalwa; type: cell-based, human
Description: as §1, §2, §3, §4, §5

[8] = system: HL-60 cells; experiment: Sulphorhodamine B (SRB) assay, HL-60; type: cell-based; conditions: HL-60, 6 days
Description: as §1, §2, §3, §4, §5

[9] = system: MV4-11 (AML) cells; experiment: SRB assay, paediatric cancer cell line MV4-11; type: cell-based; conditions: MV4-11, acute myelogenous leukaemia (AML); 6-day SRB; average of at least two experiments
Description: (§6) Cells were typically seeded in wells of a 96-well plate as follows for each cell line:
(§7) AS1411 (G rich oligonucleotide of sequence ID No. 1) was added at a concentration selected from 0, 0.1, 1, 5 or 20 µM and cells were incubated for 6 days
(§8) Cells were then washed, fixed to the 96-well plate and exposed to the dye Sulphorhodamine B (SRB; available from Sigma-Aldrich, Dorset, UK; catalogue number S-1402. The optical density of the remaining cell mass after exposure to AS1411 was measured in a microplate spectrophotometer and IC50 determined. For the time course experiments, AS1411 was washed off cells at the stated time-point, and then fresh medium applied to the cells which were left to grow for the full 6 days of the assay.
as §4

[10] = system: Bax protein; experiment: Western blot analysis, Bax; type: cell-based; conditions: cells incubated with AS1411 for 4 days; whole cell lysate; both cell lines; normalised to β-actin
Description: (§9) Cells were incubated with AS1411 for 4 days, after which cell lysates were analysed by non-reducing SDS-PAGE analysis using 4-12% NuPAGE Bis-Tris Gels (Invitrogen).
(§10) 10 μg of total protein (whole cell lysate) was loaded per well as assessed by the Lowry assay (Lowry reagent available from Sigma-Aldrich, catalogue number L3540) and detected using ECL Advance western blotting kit (GE Healthcare).
(§11) Anti-nucleolin and bax antibodies were obtained from Santa Cruz and the β-actin antibody from QED.

[11] = system: SK-N-AS (neuroblastoma); experiment: SRB assay, paediatric cancer cell line SK-N-AS; type: cell-based; conditions: 6-day SRB, average of at least two experiments
Description: as §6, §7, §8, §4

[12] = system: nucleolin; experiment: Western blot analysis, nucleolin; type: cell-based; conditions: cells incubated with AS1411 for 4 days; whole cell lysate
Description: as §9, §10, §11

[13] = system: R-1059-D (osteosarcoma); experiment: SRB assay, paediatric cancer cell line R-1059-D; type: cell-based; conditions: 6-day SRB, average of at least two experiments
Description: as §6, §7, §8, §4

[14] = system: A204 (rhabdomyosarcoma); experiment: SRB assay, paediatric cancer cell line A204; type: cell-based; conditions: 6-day SRB, average of at least two experiments
Description: as §6, §7, §8, §4

[15] = system: SUP-B15 (ALL) cells; experiment: SRB assay, paediatric cancer cell line SUP-B15; type: cell-based; conditions: SUP-B15, acute lymphoblastic leukaemia (ALL); 6-day SRB; average of at least two experiments
Description: as §6, §7, §8, §4

[16] = Homo sapiens, 144 h, IC50 as doxorubicin concentration, alone or with fixed AS1411
[17] = Homo sapiens, 144 h, 6 days, SRB, IC50 as doxorubicin concentration, alone or with fixed AS1411, read-out: Mean IC50
[18] = Homo sapiens, doxorubicin alone, read-out: Doxorubicin IC50, Alone
[19] = Homo sapiens, in combination with 2.5 μM AS1411, read-out: Doxorubicin IC50, In combination with 2.5 μM AS1411
[20] = doxorubicin IC50 alone vs in combination with 2.5 μM AS1411
[21] = 6 days, SRB, AS1411 without doxorubicin, read-out: Mean IC50

COc1cccc2c1C(=O)c1c(O)c3c(c(O)c1C2=O)C[C@@](O)(C(=O)CO)C[C@@H]3O[C@@H]1CC(N)[C@@H](O)C(C)O1 (stereo partly drawn) [Doxorubicin, (8S,10S)-10-(4-amino-5-hydroxy-6-methyl-tetrahydro-2H-pyran-2-yloxy)-6,8,11-trihydroxy-8-(2-hydroxyacetyl)-1-methoxy-7,8,9,10-tetrahydrotetracene-5,12-dione]
pIC50 [1, 16]: 5.31 | pIC50 [2, 16]: 5.90 | pIC50 ([3]; Homo sapiens, 144 h, n=1, IC50 as doxorubicin concentration, alone or with fixed AS1411): 6.37 | pIC50 [4, 17]: 6.66 | pIC50 [4, 18]: 6.66 | pIC50 [4, 19]: 7.24 | Fold increase in potency [4, 20]: 3.8 fold | pIC50 ([5]; Homo sapiens, MV4-11, 144 h, IC50 as doxorubicin concentration, alone or with fixed AS1411): 7.12 | pIC50 [6, 17]: 6.13 | pIC50 [6, 18]: 6.13 | pIC50 [6, 19]: 6.49 | Fold increase in potency [6, 20]: 2.3 fold | pIC50 ([7]; Homo sapiens, 144 h, Namalwa, 6 days, SRB, IC50 as doxorubicin concentration, alone or with fixed AS1411, read-out: Mean IC50): 7.16 | pIC50 ([7]; Homo sapiens, NAMALWA, doxorubicin alone, read-out: Doxorubicin IC50, Alone): 7.16 | pIC50 ([7]; Homo sapiens, NAMALWA, in combination with 2.5 μM AS1411, read-out: Doxorubicin IC50, In combination with 2.5 μM AS1411): 7.76 | Fold increase in potency ([7]; NAMALWA, doxorubicin IC50 alone vs in combination with 2.5 μM AS1411): 4.1 fold | pIC50 [8, 16]: 6.19

AS1411: G-rich oligonucleotide, SEQ ID No: 1, 5′-GGTGGTGGTGGTTGTGGTGGTGGTGG-3′
pIC50 ([1]; AS1411 without doxorubicin): 5.63 | pIC50 [9]: 8.68 | pIC50 ([2]; AS1411 without doxorubicin): 5.15 | Bax protein level (Western blot) [10]: increased levels; also recorded: Up-regulation | pIC50 ([3]; n=1, AS1411 without doxorubicin): 5.95 | pIC50 [4, 21]: 5.03 | pIC50 ([5]; AS1411 without doxorubicin): 5.63 | pIC50 [6, 21]: 5.31 | pIC50 [11]: 8.49 | pIC50 ([7]; Namalwa, 6 days, SRB, AS1411 without doxorubicin, read-out: Mean IC50): 5.49 | total cell lysate nucleolin levels (Western blot) [12]: no effect | pIC50 [13]: 8.33 | pIC50 [14]: 8.59 | pIC50 ([8]; AS1411 without doxorubicin): 5.58 | pIC50 [15]: 8.64
